Species: Rattus norvegicus
Assay: Open TG-GATES - Regimen: Single
Assay type: toxicity, organism-based, Sprague-Dawley
Design: regimen Single, gender Male, age 6 weeks
Conditions: in vivo, po, route gavage; for APTT / Bas / Eos / Fbg / Hb / Ht / Lym / MCH / MCHC / MCV / Mono / Neu / PT / Plat / RBC / Ret / WBC: tissue Blood; for KIDNEY_L / KIDNEY_R / KIDNEY_TOTAL: tissue Kidney; for LIVER: tissue Liver; for A/G / ALP / ALT / AST / BUN / CRE / Ca / Cl / DBIL / GLC / IP / K / LDH / Na / PL / RALB / TBIL / TC / TG / TP / gamma-GTP: tissue Plasma
[1] = 1000 mg/kg, 3 h, dose level Middle
[2] = 1000 mg/kg, 6 h, dose level Middle
[3] = 1000 mg/kg, 9 h, dose level Middle
[4] = 1000 mg/kg, 24 h, dose level Middle
[5] = 2000 mg/kg, 3 h, dose level High
[6] = 2000 mg/kg, 6 h, dose level High
[7] = 2000 mg/kg, 9 h, dose level High
[8] = 2000 mg/kg, 24 h, dose level High

COc1ccc(O)c(C(C)(C)C)c1.COc1ccc(O)cc1C(C)(C)C [BUTYLATED HYDROXYANISOLE]
TERMINAL_BW [1]: 206 g
APTT [1]: 14.7 s
Bas [1]: 0.2%
Eos [1]: 0.5%
Fbg [1]: 270.8 mg/dL
Hb [1]: 13.5 g/dL
Ht [1]: 39.4%
Lym [1]: 79.2%
MCH [1]: 20.8 pg
MCHC [1]: 34.3%
MCV [1]: 60.8 fL
Mono [1]: 1.9%
Neu [1]: 17.3%
PT [1]: 11.6 s
Plat [1]: 142.9 x10_4/uL
RBC [1]: 649 x10_4/ul
Ret [1]: 7.8%
WBC [1]: 77.2 x10_2/uL
KIDNEY_L [1]: 0.9 g
KIDNEY_R [1]: 0.9 g
KIDNEY_TOTAL [1]: 1.8 g
LIVER [1]: 8.6 g
A/G [1]: 0.8
ALP [1]: 1827.4 IU/L
ALT [1]: 53.4 IU/L
AST [1]: 77.8 IU/L
BUN [1]: 10.6 mg/dL
CRE [1]: 0.2 mg/dL
Ca [1]: 11.1 mg/dL
Cl [1]: 103.6 meq/L
DBIL [1]: 0.028 mg/dL
GLC [1]: 179.2 mg/dL
IP [1]: 10.3 mg/dL
K [1]: 3.5 meq/L
LDH [1]: 60.8 IU/L
Na [1]: 142.6 meq/L
PL [1]: 150.6 mg/dL
RALB [1]: 2.6 g/dL
TBIL [1]: 0.084 mg/dL
TC [1]: 85.2 mg/dL
TG [1]: 76.4 mg/dL
TP [1]: 5.8 g/dL
gamma-GTP [1]: 1 IU/L
TERMINAL_BW [2]: 201.1 g
APTT [2]: 15.6 s
Bas [2]: 0.2%
Eos [2]: 0.8%
Fbg [2]: 279.6 mg/dL
Hb [2]: 13.9 g/dL
Ht [2]: 40.4%
Lym [2]: 72.6%
MCH [2]: 21.2 pg
MCHC [2]: 34.3%
MCV [2]: 61.8 fL
Mono [2]: 1.6%
Neu [2]: 24.1%
PT [2]: 12.7 s
Plat [2]: 136.4 x10_4/uL
RBC [2]: 654.6 x10_4/ul
Ret [2]: 7.3%
WBC [2]: 78.7 x10_2/uL
KIDNEY_L [2]: 0.9 g
KIDNEY_R [2]: 0.8 g
KIDNEY_TOTAL [2]: 1.7 g
LIVER [2]: 7.5 g
A/G [2]: 0.9
ALP [2]: 1472.6 IU/L
ALT [2]: 49.4 IU/L
AST [2]: 74 IU/L
BUN [2]: 9.6 mg/dL
CRE [2]: 0.2 mg/dL
Ca [2]: 10.9 mg/dL
Cl [2]: 108.4 meq/L
DBIL [2]: 0.034 mg/dL
GLC [2]: 166 mg/dL
IP [2]: 9.8 mg/dL
K [2]: 4 meq/L
LDH [2]: 54.8 IU/L
Na [2]: 142.6 meq/L
PL [2]: 139.4 mg/dL
RALB [2]: 2.6 g/dL
TBIL [2]: 0.09 mg/dL
TC [2]: 81.4 mg/dL
TG [2]: 68.6 mg/dL
TP [2]: 5.7 g/dL
gamma-GTP [2]: 1 IU/L
TERMINAL_BW [3]: 199.9 g
APTT [3]: 16.6 s
Bas [3]: 0.2%
Eos [3]: 0.9%
Fbg [3]: 285 mg/dL
Hb [3]: 13.6 g/dL
Ht [3]: 39.7%
Lym [3]: 71.9%
MCH [3]: 21.1 pg
MCHC [3]: 34.4%
MCV [3]: 61.6 fL
Mono [3]: 1.6%
Neu [3]: 24.9%
PT [3]: 13.2 s
Plat [3]: 138.7 x10_4/uL
RBC [3]: 643.8 x10_4/ul
Ret [3]: 7.6%
WBC [3]: 65.3 x10_2/uL
KIDNEY_L [3]: 0.9 g
KIDNEY_R [3]: 0.8 g
KIDNEY_TOTAL [3]: 1.7 g
LIVER [3]: 7.5 g
A/G [3]: 0.8
ALP [3]: 1561.2 IU/L
ALT [3]: 41.6 IU/L
AST [3]: 72.8 IU/L
BUN [3]: 7.6 mg/dL
CRE [3]: 0.2 mg/dL
Ca [3]: 11 mg/dL
Cl [3]: 107.8 meq/L
DBIL [3]: 0.03 mg/dL
GLC [3]: 154.8 mg/dL
IP [3]: 10.3 mg/dL
K [3]: 4 meq/L
LDH [3]: 51.4 IU/L
Na [3]: 142.8 meq/L
PL [3]: 135.2 mg/dL
RALB [3]: 2.7 g/dL
TBIL [3]: 0.09 mg/dL
TC [3]: 78.2 mg/dL
TG [3]: 44.6 mg/dL
TP [3]: 5.9 g/dL
gamma-GTP [3]: 0.8 IU/L
TERMINAL_BW [4]: 209.5 g
APTT [4]: 16.1 s
Bas [4]: 0.2%
Eos [4]: 0.4%
Fbg [4]: 257 mg/dL
Hb [4]: 13.5 g/dL
Ht [4]: 39.5%
Lym [4]: 79.9%
MCH [4]: 20.8 pg
MCHC [4]: 34.1%
MCV [4]: 61 fL
Mono [4]: 2.3%
Neu [4]: 16.1%
PT [4]: 12.4 s
Plat [4]: 150.2 x10_4/uL
RBC [4]: 647.4 x10_4/ul
Ret [4]: 6.3%
WBC [4]: 89 x10_2/uL
KIDNEY_L [4]: 0.9 g
KIDNEY_R [4]: 0.9 g
KIDNEY_TOTAL [4]: 1.9 g
LIVER [4]: 9.4 g
A/G [4]: 0.9
ALP [4]: 1827.8 IU/L
ALT [4]: 46.2 IU/L
AST [4]: 75.8 IU/L
BUN [4]: 12.4 mg/dL
CRE [4]: 0.2 mg/dL
Ca [4]: 11.4 mg/dL
Cl [4]: 107.8 meq/L
DBIL [4]: 0.046 mg/dL
GLC [4]: 156.4 mg/dL
IP [4]: 8.3 mg/dL
K [4]: 4.3 meq/L
LDH [4]: 72 IU/L
Na [4]: 142.8 meq/L
PL [4]: 149 mg/dL
RALB [4]: 2.7 g/dL
TBIL [4]: 0.098 mg/dL
TC [4]: 84.2 mg/dL
TG [4]: 236.8 mg/dL
TP [4]: 5.8 g/dL
gamma-GTP [4]: 1 IU/L
TERMINAL_BW [5]: 203.7 g
APTT [5]: 15.1 s
Bas [5]: 0.1%
Eos [5]: 0.6%
Fbg [5]: 266 mg/dL
Hb [5]: 13.4 g/dL
Ht [5]: 39%
Lym [5]: 75.5%
MCH [5]: 21.4 pg
MCHC [5]: 34.3%
MCV [5]: 62.3 fL
Mono [5]: 1.9%
Neu [5]: 20.8%
PT [5]: 12.1 s
Plat [5]: 140.3 x10_4/uL
RBC [5]: 626.2 x10_4/ul
Ret [5]: 8.2%
WBC [5]: 81.2 x10_2/uL
KIDNEY_L [5]: 0.9 g
KIDNEY_R [5]: 0.8 g
KIDNEY_TOTAL [5]: 1.7 g
LIVER [5]: 7.8 g
A/G [5]: 0.9
ALP [5]: 1489.2 IU/L
ALT [5]: 51.4 IU/L
AST [5]: 79 IU/L
BUN [5]: 9.4 mg/dL
CRE [5]: 0.2 mg/dL
Ca [5]: 10.9 mg/dL
Cl [5]: 105.8 meq/L
DBIL [5]: 0.028 mg/dL
GLC [5]: 174.6 mg/dL
IP [5]: 10 mg/dL
K [5]: 3.6 meq/L
LDH [5]: 63.6 IU/L
Na [5]: 142 meq/L
PL [5]: 119 mg/dL
RALB [5]: 2.7 g/dL
TBIL [5]: 0.096 mg/dL
TC [5]: 70.4 mg/dL
TG [5]: 55.4 mg/dL
TP [5]: 5.7 g/dL
gamma-GTP [5]: 1 IU/L
TERMINAL_BW [6]: 202.1 g
APTT [6]: 16.4 s
Bas [6]: 0.2%
Eos [6]: 0.6%
Fbg [6]: 267.6 mg/dL
Hb [6]: 13.5 g/dL
Ht [6]: 39.6%
Lym [6]: 68.4%
MCH [6]: 20.9 pg
MCHC [6]: 34.2%
MCV [6]: 61.1 fL
Mono [6]: 2.8%
Neu [6]: 27%
PT [6]: 12.6 s
Plat [6]: 154.9 x10_4/uL
RBC [6]: 646.8 x10_4/ul
Ret [6]: 7.5%
WBC [6]: 78.3 x10_2/uL
KIDNEY_L [6]: 0.9 g
KIDNEY_R [6]: 0.9 g
KIDNEY_TOTAL [6]: 1.7 g
LIVER [6]: 7.7 g
A/G [6]: 0.8
ALP [6]: 1463.6 IU/L
ALT [6]: 49 IU/L
AST [6]: 73.8 IU/L
BUN [6]: 11.2 mg/dL
CRE [6]: 0.2 mg/dL
Ca [6]: 10.8 mg/dL
Cl [6]: 106.8 meq/L
DBIL [6]: 0.024 mg/dL
GLC [6]: 172.4 mg/dL
IP [6]: 10.4 mg/dL
K [6]: 4 meq/L
LDH [6]: 62.4 IU/L
Na [6]: 141.8 meq/L
PL [6]: 124.2 mg/dL
RALB [6]: 2.6 g/dL
TBIL [6]: 0.084 mg/dL
TC [6]: 75.8 mg/dL
TG [6]: 40.8 mg/dL
TP [6]: 5.8 g/dL
gamma-GTP [6]: 1.2 IU/L
TERMINAL_BW [7]: 199.8 g
APTT [7]: 17.5 s
Bas [7]: 0.2%
Eos [7]: 0.7%
Fbg [7]: 289 mg/dL
Hb [7]: 13.9 g/dL
Ht [7]: 40.9%
Lym [7]: 68.4%
MCH [7]: 20.7 pg
MCHC [7]: 34%
MCV [7]: 60.9 fL
Mono [7]: 1.6%
Neu [7]: 28.5%
PT [7]: 13 s
Plat [7]: 141.5 x10_4/uL
RBC [7]: 671.8 x10_4/ul
Ret [7]: 7%
WBC [7]: 76.1 x10_2/uL
KIDNEY_L [7]: 0.9 g
KIDNEY_R [7]: 0.9 g
KIDNEY_TOTAL [7]: 1.8 g
LIVER [7]: 7.2 g
A/G [7]: 0.8
ALP [7]: 1379.8 IU/L
ALT [7]: 40.8 IU/L
AST [7]: 69 IU/L
BUN [7]: 9.2 mg/dL
CRE [7]: 0.2 mg/dL
Ca [7]: 10.9 mg/dL
Cl [7]: 108.2 meq/L
DBIL [7]: 0.03 mg/dL
GLC [7]: 167.6 mg/dL
IP [7]: 10.2 mg/dL
K [7]: 4 meq/L
LDH [7]: 58.6 IU/L
Na [7]: 143.6 meq/L
PL [7]: 141.4 mg/dL
RALB [7]: 2.7 g/dL
TBIL [7]: 0.096 mg/dL
TC [7]: 87.6 mg/dL
TG [7]: 42.2 mg/dL
TP [7]: 5.9 g/dL
gamma-GTP [7]: 1 IU/L
TERMINAL_BW [8]: 207.8 g
APTT [8]: 16.8 s
Bas [8]: 0.2%
Eos [8]: 0.8%
Fbg [8]: 289.8 mg/dL
Hb [8]: 13.7 g/dL
Ht [8]: 39.6%
Lym [8]: 78.6%
MCH [8]: 21.2 pg
MCHC [8]: 34.6%
MCV [8]: 61.3 fL
Mono [8]: 2.2%
Neu [8]: 17.4%
PT [8]: 12.3 s
Plat [8]: 155.8 x10_4/uL
RBC [8]: 646.8 x10_4/ul
Ret [8]: 5.8%
WBC [8]: 68 x10_2/uL
KIDNEY_L [8]: 0.9 g
KIDNEY_R [8]: 0.9 g
KIDNEY_TOTAL [8]: 1.8 g
LIVER [8]: 9.3 g
A/G [8]: 0.8
ALP [8]: 1603 IU/L
ALT [8]: 53 IU/L
AST [8]: 73.6 IU/L
BUN [8]: 12.6 mg/dL
CRE [8]: 0.2 mg/dL
Ca [8]: 11.5 mg/dL
Cl [8]: 108.6 meq/L
DBIL [8]: 0.044 mg/dL
GLC [8]: 155.2 mg/dL
IP [8]: 8.5 mg/dL
K [8]: 4.2 meq/L
LDH [8]: 82.4 IU/L
Na [8]: 142.8 meq/L
PL [8]: 152.2 mg/dL
RALB [8]: 2.7 g/dL
TBIL [8]: 0.088 mg/dL
TC [8]: 93.4 mg/dL
TG [8]: 217 mg/dL
TP [8]: 5.9 g/dL
gamma-GTP [8]: 1 IU/L
